Entries after “also recorded” stand apart in the source; their conditions may differ.
Experiments:
tumor cells = assay: Cell growth experiments with MEK inhibitors and low dose PGNX; format: cell-based; conditions: PGNX less than 0.0001 μg/m; AZD6244 0.1 μM-5.0 μM; data not shown
Description: (§1) WST-1 assay. […] The Student t test was used for statistical analysis.

CHLA136Luc cells [1] = assay: WST-1 cell growth assay, CHLA136Luc; format: cell-based, human; conditions: for higher mAb dose (plus complement) cytotoxicity / low mAb dose (plus complement) growth acceleration: all inhibitor dose levels, with PGNX, 18 hours
Description: as §1

Colo205Luc cells [2] = assay: Cell growth assay, Colo205; conditions: for 5B1 cytotoxicity: all inhibitor doses tested, overnight with mAb 5B1 and HuC 5%; for tumor cell (Colo205) growth: high concentration of antibody, better than either inhibitor alone (FIG. 5C, 5D); for PGNX induced tumor cell cytotoxicity: highest PGNX and inhibitor dose tested; for tumor cell growth induced by low dose PGNX and complement: low dose PGNX (e.g., 0.0001 μg/ml), HuC′ 50 μl/ml
Procedure: (§4) WST-1 assay. WST-1 cell proliferation assay kit was used for detection of the extent of cellular proliferation according to the company's manual. Briefly, 20,000 cells in 100 μl of culture media as defined above were plated in a 96 well flat bottom plate and incubated at 37° C. in 5% CO2 overnight. Antibody doses between 0.02 ρg to 5 μg in 1 μl of defined culture media were added to each well and incubated for 1 hour at 37° C., 5% CO2; 4-10 μl of human serum complement (Quidel Corp. San Diego, Calif.) was then added to each well and incubated overnight. For assays testing the impact of PI3K inhibitor, BEZ235 (Chemdea, Ridgewood, N.J.) at 0.005, 0.5 or 5.0 μg/ml were added accordingly at same time when mAb was added. WST-1 agent (Roche Applied Science, Indianapolis Ind.) was added at 1:10 ratio at the end of incubation, and OD (Optical density) was acquired by reading the plates at 415 nm 4 hours later. The Student t test was used for statistical analysis.

CD20 = assay: In vivo experiments targeting CD20 (Rituxan): tumor growth; design: species or system SCID mice; conditions: data not shown
Procedure: (§2) mAb administration. Mice were treated with murine mAbs 3F8, PGNX, R24, against GD2, GM2, GD3 and Rituxan against CD20. Control mice, typically 2 cages of 5 mice, were treated identically, receiving the same volume of PBS at the same intervals.

[3] = tested on: CHLA136Luc, Lan-1-Luc, H524, Hs445, Daudi cells; assay: In vitro cell growth (WST-1) with mAbs and human complement on selected cell lines (FIG. 3); format: cell-based
Description: as §1

DaudiLuc cells = assay: WST-1 cell growth assay, DaudiLuc; format: cell-based, human
Description: as §1

Hs445 = assay: WST-1 cell growth assay, Hs445; format: cell-based, human; conditions: low dose, six experiments
Description: as §1

CHLA136Luc cells [4] = assay: IV CHLA136Luc tumor challenge in SCID mice: survival and tumor growth by luciferase imaging; format: in vivo, CB17 SCID mice
Procedure: Animals. CB17 SCID mice (Taconic) 5-8 weeks old were housed 5 to a cage. The Memorial Sloan Kettering Cancer Center Institutional Animal Care and Use Committee (IACUC) approved all protocols and procedures.
Tumor Challenge. Mice were placed under a heat lamp for 3 minutes and immobilized in a mouse restrainer; 0.5 million CHLA136Luc cells in 100 μl were injected into the tail vein using a BD insulin syringe with 28 gauge needle.
as §2
Imaging. Mice were anaesthetized using isoflurane and injected with 300 μg of D-Luciferin Firefly (Caliper LifeScience, Hopkinton, Mass.). They were imaged 10 minutes later using the IVIS200 in vivo imaging system (Caliper Life Science) over periods of time ranging up to 3 minutes using the software program “Living Image 3.0” (Caliper Life Science). Values are reported as photons/second.
Statistical analysis. Overall survival was defined as the time from IV tumor cell challenge to date of death or day 160. Survival distributions were generated using Kaplan-Meier methodology (Kaplan, “Nonparametric estimation from incomplete observations”, J. Am. Stat. Assoc., 1958, 53:457-81) and comparisons between treatment group and control (PBS) were made via the […] (using Graphpad Prism 5).

p-Akt [5] = assay: Western blot of p-Akt in CHLA136Luc cell extracts; format: cell-based, human; conditions: BEZ235; cells treated with PGNX 0.001 μg/m for 4 hours
Procedure: (§3) Western blot. 1×10^6 Cells were plated into 6 well plates and incubated overnight. Cells were then treated with BEZ235, mAbs and human sera complement at the dose indicated for 4 hours. At the end of incubation, cells were collected and lysed with lysis buffer from Cell Signal (Danvers, Mass.), which contains protease inhibitor cocktail and phosphatase inhibitor cocktail (Calbiochem, Philadelphia, Pa.), each at 1:100 dilution (Cocktails:lysis buffer). The cell lysates were then quantitated using Bradford assay (Bio-Rad, Hercules, Calif.) according to that company's manual: 30 μg of cell lysate protein from each sample were running on 7.5% of Tris-HCL gel (Bio-Rad) and transferred to a PVDF membrane. Membrane was then blocked with Pierce blocking buffer overnight at 4° C., probed with indicated mAbs at 1:1000 dilution overnight at 4° C. and HRP-goat anti-rabbit-IgG antibody at 1:1000 for 1 hour. The membrane was washed with PBS-T (0.1% Tween-20+PBS) 5 minutes on a shaker 5 times after each incubating and then developed using Amersham™ ECL™ Prime Western Blotting Detection Reagent (GE Healthcare, Piscataway, N.J.). Imaging was acquired by scanning the membrane on the FujiFilm LAS-3000 Imager.

p-PRAS40 = assay: Western blot of p-PRAS40 in CHLA136Luc cell extracts; format: cell-based, human; conditions: BEZ235; cells treated with PGNX 0.001 μg/m for 4 hours
Procedure: as §3

p-Akt [6] = assay: Western blot and immunofluorescent staining of p-Akt in Colo205 cells; format: cell-based
Procedure: as §3

Colo205Luc cells [7] = tested on: Colo205Luc cells
Procedure: as §4

[8] = BEZ235 alone, 25 or 12.5 mg/kg by gavage daily for 2 weeks

Compound: CC(=O)Nc1cccc(-n2c(=O)n(C3CC3)c(=O)c3c(Nc4ccc(I)cc4F)n(C)c(=O)c(C)c32)c1 [GSK202011]
- cytotoxicity of PGNX at sublytic low dosages (tumor cells): enhanced

Compound: Nc1cc(C(F)(F)F)c(-c2cc(N3CCOCC3)nc(N3CCOCC3)n2)cn1 [BKM120]
- higher mAb dose (plus complement) cytotoxicity (CHLA136Luc cells [1]): increased
- low mAb dose (plus complement) growth acceleration (CHLA136Luc cells [1]): prevented
- 5B1 cytotoxicity (Colo205Luc cells [2]): enhanced
- tumor cell (Colo205) growth (Colo205Luc cells [2]): inhibited
- PGNX induced tumor cell cytotoxicity (Colo205Luc cells [2]): enhanced
- tumor cell growth induced by low dose PGNX and complement (Colo205Luc cells [2]): dramatically inhibited

Compound: rituximab [Rituxan]
- tumor growth (CD20; doses as low as 0.001 mcg): slight delay of tumor growth
- accelerated tumor growth (CD20; doses down to 0.001 mcg): not seen
- tumor growth in vitro ([3]; high mAb doses, with complement): inhibited tumor growth
- complement-independent tumor inhibition ([3]; highest mAb doses, absence of complement): detected
- tumor cell growth in vitro ([3]; low mAb doses, exclusively in the presence of complement): accelerated tumor cell growth
- cell growth (DaudiLuc cells; low dose, single experiment): significantly accelerated growth
- experiments with significantly accelerated growth (Hs445): 4

Compound: Cn1cnc2c(F)c(Nc3ccc(Br)cc3Cl)c(C(=O)NOCCO)cc21 [AZD6244]
- cytotoxicity of PGNX at sublytic low dosages (tumor cells): enhanced

Compound: NC1(c2ccc(-c3nc4ccn5c(=O)[nH]nc5c4cc3-c3ccccc3)cc2)CCC1 [MK2206]
- higher mAb dose (plus complement) cytotoxicity (CHLA136Luc cells [1]): increased
- low mAb dose (plus complement) growth acceleration (CHLA136Luc cells [1]): prevented
- 5B1 cytotoxicity (Colo205Luc cells [2]): enhanced
- tumor cell (Colo205) growth (Colo205Luc cells [2]): inhibited
- PGNX induced tumor cell cytotoxicity (Colo205Luc cells [2]): enhanced
- tumor cell growth induced by low dose PGNX and complement (Colo205Luc cells [2]): dramatically inhibited

Compound: Cn1c(=O)n(-c2ccc(C(C)(C)C#N)cc2)c2c3cc(-c4cnc5ccccc5c4)ccc3ncc21 [BEZ235]
- CHLA136Luc growth (CHLA136Luc cells [4]; [8]): significantly reduced
- survival (CHLA136Luc cells [4]; [8]): prolonged survival
- high mAb dose induced growth inhibition (CHLA136Luc cells [4]; BEZ235 by gavage with high dose mAb): increased
- low dose mAb (PGNX) induced early tumor growth acceleration (CHLA136Luc cells [4]; BEZ235 by gavage with low-dose PGNX): eliminated; also recorded: preventing; also recorded: prevented
- survival of challenged SCID mice (CHLA136Luc cells [4]; BEZ235 with mAbs, compared with high-dose PGNX and 3F8 alone): significantly increasing survival
- effect on proliferation compared to Wortmannin (CHLA136Luc cells [1]): greater effect
- cell growth in vitro (CHLA136Luc cells [1]; BEZ235): decreased
- mAb cytotoxicity and low-dose growth acceleration (CHLA136Luc cells [1]; BEZ235 with mAbs R24 and PGNX (Table 2)): Comparable results
- mAb cytotoxicity (CHLA136Luc cells [1]; all BEZ235 doses tested, combined with 3F8 at various doses plus complement, vs each treatment alone): significantly enhanced; also recorded: increased
- accelerated cell growth induced by low dose mAb (CHLA136Luc cells [1]; combined with low-dose 3F8 (0.001 μg/ml) plus complement): significantly inhibited; also recorded: prevented
- cell growth in vitro (DaudiLuc cells; BEZ235): decreased
- mAb cytotoxicity (DaudiLuc cells; all BEZ235 doses tested, combined with Rituxan at various doses plus complement, vs each treatment alone): significantly enhanced; also recorded: increased
- accelerated cell growth induced by low dose mAb (DaudiLuc cells; combined with low-dose Rituxan (0.0001 μg/ml) plus complement): significantly inhibited; also recorded: prevented
- p-Akt expression (p-Akt [5]): inhibited
- p-PRAS40 expression (p-PRAS40): inhibited
- p-Akt expression (p-Akt [6]; BEZ235 1 μM alone): inhibited; also recorded: decreased p-AKT
- treatment time giving complete inhibition of p-Akt expression (p-Akt [6]; BEZ235 at 1 μM): ≥ 2 h
- BEZ235 dose giving complete inhibition of p-AKT expression (p-Akt [6]; cells treated for 4 hrs): ≥ 0.5 µM
- cytotoxicity of Colo205luc cells (Colo205Luc cells [7]): significantly enhanced
- effect on proliferation compared to Wortmannin (Colo205Luc cells [2]): greater effect
- accelerated cell growth induced by low dose 5B1 (Colo205Luc cells [2]; 5B1 0.001-0.01 μg/ml (BEZ235), 0.001 μg/ml (Wortmannin)): inhibited
